Where two headings read alike, the source gives them in different places.
Tests used:
mouse CCL17 = target: T1, mouse CCL17 (Mus musculus, UniProt Q9WUZ6); assay: Calcium responses induced by mouse CCL17, neutraligand protocol, CCR4+Gqi5+ HEK cells; type: cell-based; conditions: 5 nM mouse CCL17 preincubated 1 h with compound; read-out: IC50, inhibition of mouse CCL17-evoked calcium signaling
T1 construct: purchased R&D systems
Description: Dye loaded cells were placed in the FlexStation 3 (Molecular Devices). Calcium mobilization was measured at 401 and 475 nm emission fluorescence after excitation at 355 nm. For the primary screening, the ligands (50μl of chemokine mixed with DMSO or test compounds) were added to the cells at 40 s, followed by digitonin addition (50μl) at 100 s to the cells. Molecules were screened at a final concentration of 2μg/ml with 5 nM CCL17 or CCL22. […] Raw fluorescence data (at 401 and 475 nm) were exported and the ratio 401/475 was calculated. The calcium response values (height of peak response over baseline) were determined. Hits were selected by comparing the response amplitude at the time of the chemokine addition ± test compound. The Z’ factor[29] was calculated according to the following equation: Z’ = 1-(3SD+ + 3SD−)/|Ave+ − Ave−|, where SD+ and Ave+ are respectively the standard deviation and the mean value of the positive controls (chemokine + DMSO), while SD− and Ave− are respectively the standard deviation and the mean value of the negative controls (HEPES-BSA (0.1%) mixed with DMSO, or cells mixed with C-021). Hit molecules were confirmed by performing concentration-response curves and their half maximal inhibitory concentration (IC50) values were calculated using the Kaleidagraph software. […]
neutraligand. Human (○) or mouse (●) CCL17 (5nM) was preincubated with increasing […]

CCL22 = target: T2, CCL22 (Homo sapiens, UniProt O00626); assay: Tryptophan fluorescence assay on CCL22; type: binding
T2 construct: codes for the mature CCL17 or CCL22 with an N-terminal thioredoxin-hexahistidin (TRX- (His)6) tag; thioredoxin (TRX) (N, cleaved yes); (His)6 (N, cleaved yes); made in house; host or cells: E. coli BL21 (DE3)
T2 sequence (O00626 25-93): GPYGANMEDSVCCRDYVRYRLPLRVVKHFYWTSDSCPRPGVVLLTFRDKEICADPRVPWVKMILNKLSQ
Description: Fluorescence measurements were performed on a spectrofluorometer (JobinYvon/Spex) in a quartz microcuvette at 20 °C. […] The fluorescence emission spectra were corrected by subtracting the emission scan of the compounds alone and data analysis was carried out with fluorescence intensities detected at 340 nm.

CCL2 = target: T3, CCL2 (Homo sapiens, UniProt P13500); assay: Selectivity, neutraligand protocol, EGFP-CCR2+ HEK cells; type: cell-based; conditions: 10 μM compound, 5 nM CCL2, EGFP-CCR2+ HEK cells
T3 construct: purchased R&D systems
T3 sequence (P13500 24-99): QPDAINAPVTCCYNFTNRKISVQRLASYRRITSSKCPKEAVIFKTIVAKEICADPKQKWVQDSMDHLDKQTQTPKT
Description: Figure 6 (a) Selectivity of CCL17 and CCL22 neutraligands towards 10 chemokines according to the “neutraligand protocol”. […] Each column represents the mean (block) ± SD (bars) of n = 3 experiments performed in triplicate. *p < 0.05; **p < 0.01; ***p < 0.005 as compared to chemokine + DMSO. (b) Chemokine neutraligands inhibited CCR4 endocytosis induced by CCL22 or CCL17. EGFP-CCR4^+ HEK cells were incubated for 30 min with DMSO or chemokine (100 nM CCL22 or CCL17) in the presence or absence of test compounds. […] Cell surface EGFP-tagged CCR4 receptors were measured by EGFP antibody labeling and flow cytometry analysis. CCR4 internalization was expressed as a percentage of total receptor surface expression calculated using control cells incubated with DMSO (100%). […] The number of migrating cells in the presence of chemokine and compounds were expressed as the corresponding percentages. Results were analyzed by fitting the experimental curves (% of migrating cells vs log compound concentration) using the Kaleidagraph software program, and the corresponding IC50 values were calculated. […]
Dye loaded cells were placed in the FlexStation 3 (Molecular Devices). Calcium mobilization was measured at 401 and 475 nm emission fluorescence after excitation at 355 nm. […] Raw fluorescence data (at 401 and 475 nm) were exported and the ratio 401/475 was calculated. […]

T1 sequence (Q9WUZ6 24-93): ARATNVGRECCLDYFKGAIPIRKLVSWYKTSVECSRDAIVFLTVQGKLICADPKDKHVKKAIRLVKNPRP

| SMILES | IC50 (mouse CCL17) [µM] | Kd (CCL22; 1.5 μM CCL22, tryptophan fluorescence at 340 nm, estimated, read-out: KD, high-affinity binding site class, on CCL22) [µM] | Kd (CCL22; […] CCL22, tryptophan fluorescence at 340 nm, read-out: KD, low-affinity binding site class, on CCL22) [µM] | effect on calcium responses induced by CCL2 (CCL2) |
| --- | --- | --- | --- | --- |
| CC(C)=CCn1cnc2c1c(=O)n(C)c(=O)n2C [GPN279, 1,3-dimethyl-7-(3-methylbut-2-enyl)-1H-purine-2,6(3H, 7H)-dione] | 5.2 ± 0.9 |  |  |  |
| O=C(OCC(O)CO)c1ccccc1O (stereo not shown) [GPN136, 2,3-dihydroxypropyl 2-hydroxybenzoate] |  | < 0.05 | 53 | no effect |
